Laboratory results as given in patent US8952024B2, “Herbicidal pyrimidone derivatives” (E I du Pont de Nemours and Company, priority 2009, dated 2015).

Legend:
Assay type in all cases: in vivo
[1] = tested on: Italian ryegrass (Lolium multiflorum); test: Test B pre-/postemergence plant response
Procedure, shortened: (§1)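 Response scores were assigned visually after 13 to 15 days in a greenhouse, comparing treated pots with controls on a 0–100 scale where 100 denotes complete control. Preemergence treatments went onto freshly seeded loam/sand soil; postemergence treatments onto plants 2 to 18 cm tall.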

[2] = tested on: bermudagrass (Cynodon dactylon); test: Test B pre-/postemergence plant response
Procedure, shortened: as §1

[3] = tested on: galium (catchweed bedstraw, Galium aparine); test: Test B pre-/postemergence plant response; details: Preemergence
Procedure, shortened: as §1

[4] = tested on: lambsquarters (Chenopodium album); test: Test B pre-/postemergence plant response
Procedure, shortened: as §1

[5] = tested on: nightshade (eastern black nightshade, Solanum ptycanthum); test: Test B pre-/postemergence plant response; details: Preemergence
Procedure, shortened: as §1

[6] = tested on: pigweed (Amaranthus retroflexus); test: Test B pre-/postemergence plant response
Procedure, shortened: as §1

[7] = tested on: ragweed (common ragweed, Ambrosia elatior); test: Test B pre-/postemergence plant response
Procedure, shortened: as §1

[8] = tested on: sunflower (common oilseed sunflower, Helianthus annuus); test: Test B pre-/postemergence plant response; details: Preemergence
Procedure, shortened: as §1

[9] = tested on: wheat (Triticum aestivum); test: Test B pre-/postemergence plant response
Procedure, shortened: as §1

[10] = tested on: canarygrass (Phalaris minor); test: Test B postemergence plant response
Procedure, shortened: (§2)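 Plants at the 1- to 4-leaf stage (2 to 18 cm tall), grown in pots of peat moss/vermiculite medium with wetting agent and starter nutrients, received postemergence applications of test chemicals. After 13 to 15 days in a greenhouse, injury was rated visually against untreated controls on a 0 (no effect) to 100 (complete control) scale.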

[11] = tested on: chickweed (Stellaria media); test: Test B postemergence plant response
Procedure, shortened: as §2

[12] = tested on: windgrass (Apera spica-venti); test: Test B postemergence plant response
Procedure, shortened: as §2

[13] = tested on: winter barley (Hordeum vulgare); test: Test B postemergence plant response
Procedure, shortened: as §2

[14] = tested on: goosegrass (Eleusine indica); test: Test B pre-/postemergence plant response; details: Preemergence, 62 g ai/ha; scale 0 to 100, 0 no effect, 100 complete control
[15] = 31 g ai/ha, postemergence, scale 0 to 100, 0 is no effect, 100 is complete control
[16] = 250 g ai/ha, Preemergence, 0 to 100 scale
[17] = Postemergence, 62 g ai/ha, scale 0 (no effect) to 100 (complete control), 13 to 15 days
[18] = Postemergence, 125 g ai/ha, visual rating after 13 to 15 days, scale 0 (no effect) to 100 (complete control)
[19] = Postemergence, 250 g ai/ha, scale 0 to 100 (0 no effect, 100 complete control)
[20] = Preemergence, 31 g ai/ha, scale 0 to 100 (0 no effect, 100 complete control)
[21] = Preemergence, 125 g ai/ha, 0 to 100 scale
[22] = Preemergence, 62 g ai/ha, scale 0 to 100, 0 no effect, 100 complete control
[23] = 31 g ai/ha, scale 0 to 100 (0 no effect, 100 complete control)
[24] = 62 g ai/ha, scale 0 to 100, 0 no effect, 100 complete control

Cc1ccc(F)c(-n2c(-c3ccccc3)ncc(C(=O)C3=C(O)CCCC3=O)c2=O)c1 [Compound 51]
Plant response rating, Ryegrass, Italian [1, 15]: 0
Plant response rating, Ryegrass, Italian [1, 16]: 5
Plant response rating, Ryegrass, Italian [1, 17]: 0
Plant response rating, Ryegrass, Italian [1, 18]: 10
Plant response rating, Ryegrass, Italian [1, 19]: 30
Plant response rating, Ryegrass, Italian [1, 20]: 0
Ryegrass, Italian plant response rating [1, 21]: 0
Plant response rating, Bermudagrass [2, 15]: 80
Plant response rating, Bermudagrass [2, 16]: 100
Plant response rating, Bermudagrass [2, 17]: 90
Plant response rating, Bermudagrass [2, 18]: 90
Plant response rating, Bermudagrass [2, 19]: 98
Plant response rating, Bermudagrass [2, 20]: 95
Plant response rating, Bermudagrass [2, 22]: 98
Bermudagrass plant response rating [2, 21]: 100
Plant response rating, Galium ([3]; 250 g ai/ha, 0 to 100 scale): 95
Plant response rating, Galium [3, 23]: 0
Plant response rating, Galium [3, 24]: 75
Galium plant response rating ([3]; 125 g ai/ha, 0 to 100 scale): 80
Plant response rating, Lambsquarters [4, 15]: 75
Plant response rating, Lambsquarters [4, 16]: 98
Plant response rating, Lambsquarters [4, 17]: 90
Plant response rating, Lambsquarters [4, 18]: 95
Plant response rating, Lambsquarters [4, 19]: 98
Plant response rating, Lambsquarters [4, 20]: 95
Plant response rating, Lambsquarters [4, 22]: 98
Lambsquarters plant response rating [4, 21]: 98
Plant response rating, Nightshade ([5]; 250 g ai/ha, 0 to 100 scale): 100
Plant response rating, Nightshade [5, 23]: 98
Plant response rating, Nightshade [5, 24]: 98
Nightshade plant response rating ([5]; 125 g ai/ha, 0 to 100 scale): 98
Plant response rating, Pigweed [6, 15]: 85
Plant response rating, Pigweed [6, 16]: 100
Plant response rating, Pigweed [6, 17]: 95
Plant response rating, Pigweed [6, 18]: 98
Plant response rating, Pigweed [6, 19]: 100
Plant response rating, Pigweed [6, 20]: 100
Pigweed plant response rating [6, 21]: 100
Plant response rating, Ragweed [7, 15]: 80
Plant response rating, Ragweed [7, 16]: 90
Plant response rating, Ragweed [7, 17]: 80
Plant response rating, Ragweed [7, 18]: 90
Plant response rating, Ragweed [7, 19]: 95
Plant response rating, Ragweed [7, 20]: 65
Ragweed plant response rating [7, 21]: 80
Plant response rating, Sunflower ([8]; 250 g ai/ha, 0 to 100 scale): 75
Plant response rating, Sunflower [8, 23]: 20
Sunflower plant response rating ([8]; 125 g ai/ha, 0 to 100 scale): 75
Plant response rating, Wheat [9, 15]: 5
Plant response rating, Wheat [9, 16]: 10
Plant response rating, Wheat [9, 17]: 10
Plant response rating, Wheat [9, 18]: 10
Plant response rating, Wheat [9, 19]: 30
Plant response rating, Wheat [9, 20]: 0
Wheat plant response rating [9, 21]: 0
Plant response rating, Canarygrass [10, 15]: 60
Plant response rating, Canarygrass [10, 17]: 60
Plant response rating, Canarygrass [10, 18]: 60
Plant response rating, Canarygrass [10, 19]: 98
Plant response rating, Chickweed [11, 15]: 80
Plant response rating, Chickweed [11, 17]: 80
Plant response rating, Chickweed [11, 18]: 85
Plant response rating, Chickweed [11, 19]: 95
Plant response rating, Windgrass [12, 15]: 50
Plant response rating, Windgrass [12, 17]: 60
Plant response rating, Windgrass [12, 18]: 60
Plant response rating, Windgrass [12, 19]: 85
Plant response rating, Barley [13, 15]: 5
Plant response rating, Barley [13, 17]: 25
Plant response rating, Barley [13, 18]: 30
Plant response rating, Barley [13, 19]: 50
Plant response rating, Goosegrass [14]: 100
